Source: patent US20230049952A1, “METHODS AND COMPOUNDS FOR RESTORING MUTANT P53 FUNCTION” (PMV Pharmaceuticals, Inc., priority 2020, published 2023)

Test system: p53 signaling pathway in MT373 tumors
Assay: MT373 syngeneic sarcoma model: mouse p53 signaling pathway profiling panel
Assay type: in vivo

CCn1c(C#CCNc2ccccc2)cc2cc(CNC3CCN(C)CC3)ccc21 [Compound 1, 1-Anilino-3-{1-ethyl-5-[(1-methyl-4-piperidylamino)methyl]-1H-indol-2-yl}-2-propyne]
Sirt1 fold increase or percent reduction vs vehicle control (150 mg/kg BIDx1, 48 h): 13.36 fold or % | Stat1 fold increase or percent reduction vs vehicle control (150 mg/kg BIDx1, 48 h): 1.72 fold or % | Tnf fold increase or percent reduction vs vehicle control (150 mg/kg BIDx1, 48 h): 27.80 fold or % | Traf1 fold increase or percent reduction vs vehicle control (150 mg/kg BIDx1, 48 h): 1.04 fold or % | Trp53bp2 fold increase or percent reduction vs vehicle control (150 mg/kg BIDx1, 48 h): 8.14 fold or % | Trp53 fold increase or percent reduction vs vehicle control (150 mg/kg BIDx1, 48 h): 22.40 fold or % | Apex1 fold increase or percent reduction vs vehicle control (150 mg/kg BIDx1, 72 h): 15.68 fold or % | Atm fold increase or percent reduction vs vehicle control (150 mg/kg BIDx1, 72 h): 18.10 fold or % | Atr fold increase or percent reduction vs vehicle control (150 mg/kg BIDx1, 72 h): 1.15 fold or % | Bag1 fold increase or percent reduction vs vehicle control (150 mg/kg BIDx1, 72 h): 21.87 fold or % | Bax fold increase or percent reduction vs vehicle control (150 mg/kg BIDx1, 72 h): 21.38 fold or % | Bbc3 fold increase or percent reduction vs vehicle control (150 mg/kg BIDx1, 72 h): 1.10 fold or % | Bcl2 fold increase or percent reduction vs vehicle control (150 mg/kg BIDx1, 72 h): 6.74 fold or % | Bid fold increase or percent reduction vs vehicle control (150 mg/kg BIDx1, 72 h): 2.75 fold or % | Birc5 fold increase or percent reduction vs vehicle control (150 mg/kg BIDx1, 72 h): 24.85 fold or % | Brca1 fold increase or percent reduction vs vehicle control (150 mg/kg BIDx1, 72 h): 17.44 fold or % | Brca2 fold increase or percent reduction vs vehicle control (150 mg/kg BIDx1, 72 h): 19.53 fold or % | Btg2 fold increase or percent reduction vs vehicle control (150 mg/kg BIDx1, 72 h): 23.10 fold or % | Casp2 fold increase or percent reduction vs vehicle control (150 mg/kg BIDx1, 72 h): 8.98 fold or % | Ccnb1 fold increase or percent reduction vs vehicle control (150 mg/kg BIDx1, 72 h): 18.77 fold or % | Ccne1 fold increase or percent reduction vs vehicle control (150 mg/kg BIDx1, 72 h): 1.04 fold or % | Ccng1 fold increase or percent reduction vs vehicle control (150 mg/kg BIDx1, 72 h): 11.26 fold or % | Ccnh fold increase or percent reduction vs vehicle control (150 mg/kg BIDx1, 72 h): 5.78 fold or % | Cdc25a fold increase or percent reduction vs vehicle control (150 mg/kg BIDx1, 72 h): 1.65 fold or % | Cdk1 fold increase or percent reduction vs vehicle control (150 mg/kg BIDx1, 72 h): 22.76 fold or % | Cdk4 fold increase or percent reduction vs vehicle control (150 mg/kg BIDx1, 72 h): 19.73 fold or % | Cdkn1a fold increase or percent reduction vs vehicle control (150 mg/kg BIDx1, 72 h): 13.49 fold or % | Cdkn2a fold increase or percent reduction vs vehicle control (150 mg/kg BIDx1, 72 h): 20.75 fold or % | Chek1 fold increase or percent reduction vs vehicle control (150 mg/kg BIDx1, 72 h): 17.70 fold or % | Cradd fold increase or percent reduction vs vehicle control (150 mg/kg BIDx1, 72 h): 16.72 fold or % | Cul9 fold increase or percent reduction vs vehicle control (150 mg/kg BIDx1, 72 h): 1.54 fold or % | Dapk1 fold increase or percent reduction vs vehicle control (150 mg/kg BIDx1, 72 h): 1.39 fold or % | Dnmt1 fold increase or percent reduction vs vehicle control (150 mg/kg BIDx1, 72 h): 1.03 fold or % | E2f1 fold increase or percent reduction vs vehicle control (150 mg/kg BIDx1, 72 h): 1.10 fold or % | E2f3 fold increase or percent reduction vs vehicle control (150 mg/kg BIDx1, 72 h): 17.09 fold or % | Egfr fold increase or percent reduction vs vehicle control (150 mg/kg BIDx1, 72 h): 13.15 fold or % | Egr1 fold increase or percent reduction vs vehicle control (150 mg/kg BIDx1, 72 h): 38.21 fold or % | Ep300 fold increase or percent reduction vs vehicle control (150 mg/kg BIDx1, 72 h): 2.74 fold or % | Ercc1 fold increase or percent reduction vs vehicle control (150 mg/kg BIDx1, 72 h): 20.27 fold or % | Esr1 fold increase or percent reduction vs vehicle control (150 mg/kg BIDx1, 72 h): 1.82 fold or % | Fadd fold increase or percent reduction vs vehicle control (150 mg/kg BIDx1, 72 h): 1.18 fold or % | Fas fold increase or percent reduction vs vehicle control (150 mg/kg BIDx1, 72 h): 12.10 fold or % | Fasl fold increase or percent reduction vs vehicle control (150 mg/kg BIDx1, 72 h): 1.29 fold or % | Foxo3 fold increase or percent reduction vs vehicle control (150 mg/kg BIDx1, 72 h): 1.08 fold or % | Gadd45a fold increase or percent reduction vs vehicle control (150 mg/kg BIDx1, 72 h): 12.31 fold or % | Hif1a fold increase or percent reduction vs vehicle control (150 mg/kg BIDx1, 72 h): 1.18 fold or % | Il6 fold increase or percent reduction vs vehicle control (150 mg/kg BIDx1, 72 h): 61.14 fold or % | Jun fold increase or percent reduction vs vehicle control (150 mg/kg BIDx1, 72 h): 20.41 fold or % | Kras fold increase or percent reduction vs vehicle control (150 mg/kg BIDx1, 72 h): 1.08 fold or % | Lig4 fold increase or percent reduction vs vehicle control (150 mg/kg BIDx1, 72 h): 1.27 fold or % | Mdm2 fold increase or percent reduction vs vehicle control (150 mg/kg BIDx1, 72 h): 1.10 fold or % | Mdm4 fold increase or percent reduction vs vehicle control (150 mg/kg BIDx1, 72 h): 13.89 fold or % | Mel1 fold increase or percent reduction vs vehicle control (150 mg/kg BIDx1, 72 h): 17.68 fold or % | Mlh1 fold increase or percent reduction vs vehicle control (150 mg/kg BIDx1, 72 h): 1.52 fold or % | Msh2 fold increase or percent reduction vs vehicle control (150 mg/kg BIDx1, 72 h): 4.98 fold or % | Myod1 fold increase or percent reduction vs vehicle control (150 mg/kg BIDx1, 72 h): 3.03 fold or % | Nf1 fold increase or percent reduction vs vehicle control (150 mg/kg BIDx1, 72 h): 12.40 fold or % | Nfkb1 fold increase or percent reduction vs vehicle control (150 mg/kg BIDx1, 72 h): 1.15 fold or % | Pcna fold increase or percent reduction vs vehicle control (150 mg/kg BIDx1, 72 h): 21.44 fold or % | Pmaip1 fold increase or percent reduction vs vehicle control (150 mg/kg BIDx1, 72 h): 1.41 fold or % | Ppm1d fold increase or percent reduction vs vehicle control (150 mg/kg BIDx1, 72 h): 0.20 fold or % | Prkca fold increase or percent reduction vs vehicle control (150 mg/kg BIDx1, 72 h): 4.15 fold or % | Pten fold increase or percent reduction vs vehicle control (150 mg/kg BIDx1, 72 h): 1.14 fold or % | Pttg1 fold increase or percent reduction vs vehicle control (150 mg/kg BIDx1, 72 h): 1.19 fold or % | Rb1 fold increase or percent reduction vs vehicle control (150 mg/kg BIDx1, 72 h): 3.47 fold or % | Rela fold increase or percent reduction vs vehicle control (150 mg/kg BIDx1, 72 h): 2.50 fold or % | Rprm fold increase or percent reduction vs vehicle control (150 mg/kg BIDx1, 72 h): 1.51 fold or % | Serpinb5 fold increase or percent reduction vs vehicle control (150 mg/kg BIDx1, 72 h): 1.00 fold or % | Sesn2 fold increase or percent reduction vs vehicle control (150 mg/kg BIDx1, 72 h): 1.31 fold or % | Sfn fold increase or percent reduction vs vehicle control (150 mg/kg BIDx1, 72 h): 7.33 fold or % | Sirt1 fold increase or percent reduction vs vehicle control (150 mg/kg BIDx1, 72 h): 1.08 fold or % | Stat1 fold increase or percent reduction vs vehicle control (150 mg/kg BIDx1, 72 h): 1.78 fold or % | Tnf fold increase or percent reduction vs vehicle control (150 mg/kg BIDx1, 72 h): 1.15 fold or % | Traf1 fold increase or percent reduction vs vehicle control (150 mg/kg BIDx1, 72 h): 1.41 fold or % | Trp53bp2 fold increase or percent reduction vs vehicle control (150 mg/kg BIDx1, 72 h): 1.07 fold or % | Trp53 fold increase or percent reduction vs vehicle control (150 mg/kg BIDx1, 72 h): 1.21 fold or % | Bbc3 mRNA increase (150 mg/kg BID×1, 24 h): 2.27 fold | Birc5 mRNA decrease (150 mg/kg BID×1, 24 h): 53.57% | Ccng1 mRNA increase (150 mg/kg BID×1, 24 h): 6.84 fold | Cdc25c mRNA decrease (150 mg/kg BID×1, 24 h): 41.75% | Cdk1 mRNA decrease (150 mg/kg BID×1, 24 h): 64.58% | Cdkn1a mRNA increase (150 mg/kg BID×1, 24 h): 10.93 fold | Chek1 mRNA decrease (150 mg/kg BID×1, 24 h): 58.77% | Egfr mRNA change (150 mg/kg BID×1, 24 h): 47.37%
